Assay [1] deals with Rattus norvegicus. The assay can be described thus: Anesthetic activity in rat at 0.5 uMol/site assessed as duration of full recovery of sensory block. Type of assay: functional.
Assay [2] has as its system Rattus norvegicus. Kind of assay: Anesthetic activity in rat at 1.0 uMol/site assessed as duration of full recovery of sensory block. The class given is functional.
Assay [3] concerns Rattus norvegicus. The assay can be described thus: Anesthetic activity in rat at 2.0 uMol/site assessed as duration of full recovery of sensory block. The class given is functional.
Assay [4] deals with Rattus norvegicus. Kind of assay: Anesthetic activity in rat at 4.0 uMol/site assessed as duration of full recovery of sensory block. The class given is functional.
For assay [5], the system named is Ileum. Kind of assay: Antispasmodic activity in guinea pig ileum assessed as inhibition of histamine-induced contraction. The following applies: Cavia porcellus. The class given is functional, tissue-based.
Assay [6] concerns Ileum. Kind of assay: Antispasmodic activity in guinea pig ileum assessed as inhibition of allergen-induced contraction. The following applies: Cavia porcellus. The class given is functional, tissue-based.
Assay [7] can be described thus: Activity at sodium channel assessed as blockade of sodium current.

In general, IC50 refers to the midpoint of a concentration-inhibition curve.

On to `CCN(CC)CCC(=O)Nc1c(C)cccc1C`, for which the Time in the assay with Rattus norvegicus [1] is on record as 72 min; with Rattus norvegicus [2], 107 min; in the assay on Rattus norvegicus [3], 194 min; in the assay on Rattus norvegicus [4] it was 311 min.
For `CCN(CC)CCC(=O)Nc1ccc(C)cc1C` the same measures were 35 min, 89 min, 166 min and 239 min.
Regarding `CCN(CC)CC(=O)Nc1ccc(C)cc1C`, the Time in the assay on Rattus norvegicus [1] amounted to 17 min; with Rattus norvegicus [2], 32 min; with Rattus norvegicus [3] it was 63 min; with Rattus norvegicus [4], 92 min. Besides, the values for the IC50 in the assay on Ileum [5] and with Ileum [6] were 310 µM and 190 µM, respectively.
Regarding `CCN(CC)CC(=O)Nc1cccc(C)c1C`, the Time is on record as 7 min in the assay on Rattus norvegicus [1], 16 min with Rattus norvegicus [2], 25 min with Rattus norvegicus [3] and 34 min in the assay on Rattus norvegicus [4]. In addition, the IC50 was determined as 380 µM in the assay with Ileum [5] and 330 µM in the assay with Ileum [6].
Regarding `CCN(CC)CCC(=O)Nc1ccc(C)c(C)c1`, the Time is 26 min with Rattus norvegicus [1], 48 min in the assay on Rattus norvegicus [2], 80 min with Rattus norvegicus [3] and 107 min in the assay with Rattus norvegicus [4].
`CCN(CC)CCC(=O)Nc1cc(C)cc(C)c1`: the Time in the assay with Rattus norvegicus [1] was found to be 88 min; with Rattus norvegicus [2], 118 min; with Rattus norvegicus [3] it was 240 min; in the assay on Rattus norvegicus [4], 377 min.
Regarding `CCN(CC)CC(=O)Nc1ccccc1C`, the Time in the assay on Rattus norvegicus [1] is on record as 17 min; in the assay on Rattus norvegicus [2], 28 min; in the assay with Rattus norvegicus [3], 48 min; with Rattus norvegicus [4] it was 63 min. In addition, the concentration for half-maximal inhibition (IC50) in the assay with Ileum [5] and in the assay on Ileum [6] was 160 µM throughout.
Regarding `CCN(CC)CCC(=O)Nc1cc(C)ccc1C`, the Time with Rattus norvegicus [1] is given as 22 min; in the assay on Rattus norvegicus [2] it was 47 min; in the assay with Rattus norvegicus [3] it was 72 min; in the assay on Rattus norvegicus [4] it was 101 min.
For the compound `CCN(CC)CC(=O)Nc1ccc(C)c(C)c1`, the Time in the assay on Rattus norvegicus [1] amounted to 11 min; with Rattus norvegicus [2], 20 min; in the assay with Rattus norvegicus [3], 32 min; with Rattus norvegicus [4], 55 min.
As to `CCN(CC)CC(=O)Nc1cc(C)ccc1C`, the Time stood at 19 min with Rattus norvegicus [1], 28 min in the assay with Rattus norvegicus [2], 40 min in the assay on Rattus norvegicus [3] and 54 min in the assay with Rattus norvegicus [4]. Moreover, the figures for the IC50 with Ileum [5] and in the assay with Ileum [6] were 140 µM and 120 µM, respectively.
As to `CCN(CC)CC(=O)Nc1cccc(C(F)(F)F)c1`, the Time in the assay on Rattus norvegicus [1] is listed as 17 min; in the assay on Rattus norvegicus [2] it was 19 min; in the assay with Rattus norvegicus [3], 18 min; with Rattus norvegicus [4], 18 min.
Consider `CCN(CC)CC(=O)Nc1cc(C)cc(C)c1`, for which the Time in the assay on Rattus norvegicus [1] amounted to 44 min; in the assay on Rattus norvegicus [2] it was 91 min; with Rattus norvegicus [3], 134 min; in the assay with Rattus norvegicus [4], 181 min.
For `CCN(CC)CC(=O)Nc1ccc(C(F)(F)F)cc1` the same measures were 19 min, 19 min, 19 min and 21 min.
For `CCN(CC)CCC(=O)Nc1cccc(C)c1C` the same measures were 22 min, 49 min, 91 min and 139 min.
`CCN(CC)CC(=O)Nc1ccccc1C(F)(F)F`: the Time with Rattus norvegicus [1] was determined as 8 min; in the assay with Rattus norvegicus [2], 13 min; in the assay with Rattus norvegicus [3] it was 15 min; with Rattus norvegicus [4], 24 min. For the same compound, the IC50 worked out at 100 µM with Ileum [5], 50 µM in the assay on Ileum [6] and 25400 µM in assay [7].
In the case of `CCN(CC)CC(=O)Nc1c(C)cccc1C` [LIDOCAINE], the Time with Rattus norvegicus [1] is 37 min; in the assay with Rattus norvegicus [2], 74 min; in the assay on Rattus norvegicus [3], 103 min; with Rattus norvegicus [4] it was 164 min. Besides, the IC50 in the assay on Ileum [5] is 1410 µM; with Ileum [6], 1430 µM; in assay [7], 180 µM.

The values above are taken from ChEMBL document CHEMBL1142329, “Synthesis and antispasmodic activity of lidocaine derivatives endowed with reduced local anesthetic action” (Bioorg Med Chem Lett, 2008).
